Data set [1] in a line: Cytotoxicity against human MCF10A cells at 7.8 to 1000 uM after 24 hrs by XTT assay. The format is toxicity, cell-based. The conditions noted are these: mcf-10a.
Data set [2] is described as follows: Cytotoxicity against human A549 cells after 24 hrs by XTT assay. The format is functional, cell-based. The conditions noted are these: A549, 24 h.
Data set [3] in a line: Cytotoxicity against human MCF7 cells after 24 hrs by XTT assay. The settings on record: MCF7, 24 h. (In general: Tetrazolium assays rely on reduction of a dye to a coloured formazan, in cell work by metabolically active cells.)
Data set [4] is described as follows: Cytotoxicity against human HeLa cells after 24 hrs by XTT assay. It is filed as functional, cell-based.

Here are results for five compounds from ChEMBL document CHEMBL3853308, “Condensation of Macrocyclic Polyketides Produced by Penicillium sp. DRF2 with Mercaptopyruvate Represents a New Fungal Detoxification Pathway” (J Nat Prod, 2016).

Each structure is given as a SMILES string.

As to `C[C@H]1CCC(=O)/C=C/C(=O)c2c(O)cc(O)cc2CC(=O)O1`, the Activity entry in data set [1] is recorded as “Non-Toxic”.

In the case of `COC(=O)[C@@]1(O)CS[C@H]2CCC[C@H](C)OC(=O)Cc3cc(O)cc(O)c3C(=O)[C@@H]21`, in data set [1], the Activity entry is given as “Non-Toxic”.

With `C[C@H]1CCC[C@@H]2SC[C@](O)(C(=O)O)[C@H]2C(=O)c2c(O)cc(O)cc2CC(=O)O1`, the Activity result in data set [1] is listed as “Non-Toxic”.

For `C[C@H]1CCC[C@H]2O[C@H]2C(=O)c2c(O)cc(O)cc2CC(=O)O1`, the Activity result in data set [1] is recorded as “Non-Toxic”.

For orientation: IC50 means the concentration that inhibits the measured activity by half. For `COc1cccc2c1C(=O)c1c(O)c3c(c(O)c1C2=O)C[C@@](O)(C(=O)CO)C[C@@H]3O[C@H]1C[C@H](N)[C@H](O)[C@H](C)O1` [DOXORUBICIN], the results for the IC50 in data set [2], in data set [3] and in data set [4] were 190 nM, 120 nM and 140 nM, respectively.
